The source of these data is patent publication US20170037028A1 (BAYER PHARMA AKTIENGESELLSCHAFT, priority 2013, published 2017).

Usually IC50 stands for the point on the concentration scale where inhibition reaches its midpoint.

The experiment deals with T1, GLUT1 (Homo sapiens, UniProt P11166).
T1 sequence (P11166 1-492): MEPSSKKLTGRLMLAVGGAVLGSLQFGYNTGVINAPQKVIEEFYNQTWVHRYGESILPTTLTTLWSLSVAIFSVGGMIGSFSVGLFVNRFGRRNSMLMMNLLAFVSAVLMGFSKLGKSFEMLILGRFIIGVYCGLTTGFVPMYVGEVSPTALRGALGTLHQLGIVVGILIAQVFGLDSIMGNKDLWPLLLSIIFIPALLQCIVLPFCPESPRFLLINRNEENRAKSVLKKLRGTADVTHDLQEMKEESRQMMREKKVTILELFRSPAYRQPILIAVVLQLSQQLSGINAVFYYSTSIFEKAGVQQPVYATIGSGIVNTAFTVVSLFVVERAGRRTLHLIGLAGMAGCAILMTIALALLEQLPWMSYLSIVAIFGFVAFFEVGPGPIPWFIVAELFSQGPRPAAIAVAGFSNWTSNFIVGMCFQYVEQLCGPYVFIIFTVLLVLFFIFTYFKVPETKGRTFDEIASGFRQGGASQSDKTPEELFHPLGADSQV
The experiment in a line: Indirect measurement of GLUT1 activity by quantification of intracellular ATP levels (glucose induced ATP increase). The format is cell-based. Further details: endogenous in cells; host or cells: DLD1 or CHO-K1. Conditions: read-out: IC50 regarding glucose induced ATP increase (GLUT1 inhibition). Summed up:
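DLD1 or CHO-K1 cells were starved overnight in glucose-free medium with 1% FCS, then combined with an oxidative phosphorylation inhibitor. GLUT1 activity was read as glucose-induced ATP increase, GLUT2 as fructose-induced. Intracellular ATP was quantified by CellTiter-Glo luminescence.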
Take `Cc1c(NC(=O)c2cc(C(N)=O)nc3cc(F)c(Cl)cc23)c(C(F)(F)F)nn1Cc1ccc(C#N)cc1` [Example 213, 6-chloro-N^4-[1-(4-cyanobenzyl)-5-methyl-3-(trifluoromethyl)-1H-pyrazol-4-yl]-7-fluoroquinoline-2,4-dicarboxamide]: the IC50 came to 0.7 nM. For `COc1ccc(Cn2nc(C)c(NC(=O)c3cc(C(N)=O)nc4cc(F)c(Cl)cc34)c2C)cc1` [Example 214, 6-chloro-7-fluoro-N^4-[1-(4-methoxybenzyl)-3,5-dimethyl-1H-pyrazol-4-yl]quinoline-2,4-dicarboxamide], the IC50 was determined as 1.1 nM. With `Cc1nn(Cc2ccccc2C#N)c(C)c1NC(=O)c1cc(C(N)=O)nc2cc(F)c(Cl)cc12` [Example 215, 6-chloro-N^4-[1-(2-cyanobenzyl)-3,5-dimethyl-1H-pyrazol-4-yl]-7-fluoroquinoline-2,4-dicarboxamide], the IC50 was 1.6 nM. With `Cc1c(NC(=O)c2cc(C(N)=O)nc3cc(F)c(F)cc23)c(C(F)(F)F)nn1Cc1ccc(C#N)cc1` [Example 216, N^4-[1-(4-cyanobenzyl)-5-methyl-3-(trifluoromethyl)-1H-pyrazol-4-yl]-6,7-difluoroquinoline-2,4-dicarboxamide] the figure was 2.1 nM; with `Cc1nn(Cc2ccc(S(C)(=O)=O)cc2)c(C)c1NC(=O)c1cc(C(F)(F)F)nc2ccc(Br)cc12` [Example 217, 6-bromo-N-{3,5-dimethyl-1-[4-(methylsulfonyl)benzyl]-1H-pyrazol-4-yl}-2-(trifluoromethyl)quinoline-4-carboxamide], 3.2 nM; with `Cc1nn(Cc2ccc(C#N)c(F)c2)c(C)c1NC(=O)c1cc(C(F)(F)F)nc2ccc(Br)cc12` [Example 218, 6-bromo-N-[1-(4-cyano-3-fluorobenzyl)-3,5-dimethyl-1H-pyrazol-4-yl]-2-(trifluoromethyl)quinoline-4-carboxamide], 3.4 nM. Take `Cc1c(NC(=O)c2cc(C(N)=O)nc3ccc(F)cc23)c(C(F)(F)F)nn1Cc1ccc(C#N)cc1` [Example 219, N^4-[1-(4-cyanobenzyl)-5-methyl-3-(trifluoromethyl)-1H-pyrazol-4-yl]-6-fluoroquinoline-2,4-dicarboxamide]: the IC50 turned out to be 5.4 nM. With `Cc1nn(Cc2cccnc2C#N)c(C)c1NC(=O)c1cc(C(N)=O)nc2cc(F)c(F)cc12` [Example 220, N^4-{1-[(2-cyanopyridin-3-yl)methyl]-3,5-dimethyl-1H-pyrazol-4-yl}-6,7-difluoroquinoline-2,4-dicarboxamide] the figure was 6.4 nM; with `Cc1nn(Cc2ccccc2C#N)c(C)c1NC(=O)c1cc(C(N)=O)nc2ccc(F)cc12` [Example 221, N^4-[1-(2-cyanobenzyl)-3,5-dimethyl-1H-pyrazol-4-yl]-6-fluoroquinoline-2,4-dicarboxamide], 6.7 nM. With `Cc1nn(Cc2ncccc2C#N)c(C)c1NC(=O)c1cc(C(N)=O)nc2cc(F)c(F)cc12` [Example 222, N^4-{1-[(3-cyanopyridin-2-yl)methyl]-3,5-dimethyl-1H-pyrazol-4-yl}-6,7-difluoroquinoline-2,4-dicarboxamide], the half-maximal inhibitory concentration (IC50) amounted to 7.1 nM. With `Cc1nn(Cc2cccnc2C#N)c(C)c1NC(=O)c1cc(C(N)=O)nc2ccccc12` [Example 223, N^4-{1-[(2-cyanopyridin-3-yl)methyl]-3,5-dimethyl-1H-pyrazol-4-yl}quinoline-2,4-dicarboxamide] the figure was 11.1 nM; with `Cc1nn(Cc2ccc(S(C)(=O)=O)cc2)c(C)c1NC(=O)c1cc(C(N)=O)nc2ccccc12` [Example 224, N^4-{3,5-dimethyl-1-[4-(methylsulfonyl)benzyl]-1H-pyrazol-4-yl}quinoline-2,4-dicarboxamide], 11.2 nM; with `Cc1nn(Cc2ccc(C#N)nc2)c(C)c1NC(=O)c1cc(C(N)=O)nc2ccccc12` [Example 225, N^4-{1-[(6-cyanopyridin-3-yl)methyl]-3,5-dimethyl-1H-pyrazol-4-yl}quinoline-2,4-dicarboxamide], 14 nM. Turning to `COc1ccc(Cn2nc(C)c(NC(=O)c3cc(C(N)=O)nc4cc(F)c(F)cc34)c2C)cc1` [Example 226, 6,7-difluoro-N^4-[1-(4-methoxybenzyl)-3,5-dimethyl-1H-pyrazol-4-yl]quinoline-2,4-dicarboxamide], the IC50 turned out to be 4 nM. On to `COc1ccc(Cn2nc(C)c(NC(=O)c3cc(C(N)=O)nc4ccc(F)cc34)c2C)cc1` [Example 227, 6-fluoro-N^4-[1-(4-methoxybenzyl)-3,5-dimethyl-1H-pyrazol-4-yl]quinoline-2,4-dicarboxamide], for which the IC50 was determined as 4.6 nM. With `Cc1nn(Cc2ccc(C#N)cc2)c(C)c1NC(=O)c1cc(C(N)=O)nc2ccc(F)cc12` [Example 228, N^4-[1-(4-cyanobenzyl)-3,5-dimethyl-1H-pyrazol-4-yl]-6-fluoroquinoline-2,4-dicarboxamide] the figure was 4.6 nM; with `Cc1nn(Cc2ccc(F)cc2)c(C)c1NC(=O)c1cc(C(N)=O)nc2ccc(F)cc12` [Example 229, 6-fluoro-N^4-[1-(4-fluorobenzyl)-3,5-dimethyl-1H-pyrazol-4-yl]quinoline-2,4-dicarboxamide], 4.6 nM; with `Cc1nn(Cc2ccc(C#N)cc2)c(C)c1NC(=O)c1cc(C(N)=O)nc2cc(F)c(F)cc12` [Example 230, N^4-[1-(4-cyanobenzyl)-3,5-dimethyl-1H-pyrazol-4-yl]-6,7-difluoroquinoline-2,4-dicarboxamide], 5 nM.

Regarding `Cc1nn(Cc2ccc(S(C)(=O)=O)cc2)c(C)c1NC(=O)c1cc(C(N)=O)nc2cc(F)c(F)cc12` [Example 231, N^4-{3,5-dimethyl-1-[4-(methylsulfonyl)benzyl]-1H-pyrazol-4-yl}-6,7-difluoroquinoline-2,4-dicarboxamide], the IC50 was found to be 5.8 nM. With `Cc1nn(Cc2ccccc2C#N)c(C)c1NC(=O)c1cc(C(N)=O)nc2ccccc12` [Example 232, N^4-[1-(2-cyanobenzyl)-3,5-dimethyl-1H-pyrazol-4-yl]quinoline-2,4-dicarboxamide] the figure was 7 nM; with `COc1ccc2nc(C3CC3)cc(C(=O)Nc3c(C)nn(Cc4ccc(F)cc4)c3C)c2c1` [Example 233, 2-cyclopropyl-N-[1-(4-fluorobenzyl)-3,5-dimethyl-1H-pyrazol-4-yl]-6-methoxyquinoline-4-carboxamide], 7.2 nM. With `Cc1nn(Cc2ncccc2C#N)c(C)c1NC(=O)c1cc(C(F)(F)F)nc2ccc(Br)cc12` [Example 234, 6-bromo-N-{1-[(3-cyanopyridin-2-yl)methyl]-3,5-dimethyl-1H-pyrazol-4-yl}-2-(trifluoromethyl)quinoline-4-carboxamide] the figure was 9.2 nM; with `Cc1nn(Cc2ccccc2C#N)c(C)c1NC(=O)c1cc(C(N)=O)nc2cc(F)c(F)cc12` [Example 235, N^4-[1-(2-cyanobenzyl)-3,5-dimethyl-1H-pyrazol-4-yl]-6,7-difluoroquinoline-2,4-dicarboxamide], 10.9 nM.

For the compound `COc1ccc(Cn2nc(C)c(NC(=O)c3cc(C(N)=O)nc4cc(F)c(F)cc34)c2C)cc1F` [Example 236, 6,7-difluoro-N^4-[1-(3-fluoro-4-methoxybenzyl)-3,5-dimethyl-1H-pyrazol-4-yl]quinoline-2,4-dicarboxamide], the IC50 worked out at 0.4 nM. With `COc1ccc(Cn2nc(C)c(NC(=O)c3cc(C(N)=O)nc4cc(F)c(Cl)cc34)c2C)cc1F` [Example 237, 6-chloro-7-fluoro-N^4-[1-(3-fluoro-4-methoxybenzyl)-3,5-dimethyl-1H-pyrazol-4-yl]quinoline-2,4-dicarboxamide] the figure was 0.4 nM; with `COc1ccc(Cn2nc(C)c(NC(=O)c3cc(C(N)=O)nc4ccccc34)c2C)cc1F` [Example 238, N^4-[1-(3-fluoro-4-methoxybenzyl)-3,5-dimethyl-1H-pyrazol-4-yl]quinoline-2,4-dicarboxamide], 1.1 nM; with `COc1cc(C(=O)Nc2c(C)nn(Cc3ccc(OC)c(F)c3)c2C)c2ccccc2n1` [Example 239, N-[1-(3-fluoro-4-methoxybenzyl)-3,5-dimethyl-1H-pyrazol-4-yl]-2-methoxyquinoline-4-carboxamide], 2.9 nM. As for `Cc1c(NC(=O)c2cc(C(N)=O)nc3c(F)cc(Cl)cc23)c(C(F)(F)F)nn1Cc1ccc(C#N)cc1` [Example 241, 6-chloro-N^4-[1-(4-cyanobenzyl)-5-methyl-3-(trifluoromethyl)-1H-pyrazol-4-yl]-8-fluoroquinoline-2,4-dicarboxamide], the IC50 is 1.1 nM. With `COc1cc2c(C(=O)Nc3c(C(F)(F)F)nn(Cc4ccc(C#N)cc4)c3C)cc(C(N)=O)nc2cc1F` [Example 242, N^4-[1-(4-cyanobenzyl)-5-methyl-3-(trifluoromethyl)-1H-pyrazol-4-yl]-7-fluoro-6-methoxyquinoline-2,4-dicarboxamide] the figure was 1 nM.
